Measured values published in the NIST ThermoML archive (doi:10.1021/je050305z).

Conditions: Gas, Hot wire method

COC [dimethyl ether]
Conditions	thermal conductivity [W/m/K]
266.62 K, 148.1 kPa	0.01348
267.77 K, 148.1 kPa	0.01359
268.94 K, 148.1 kPa	0.01363
276.2 K, 155.8 kPa	0.01468
276.2 K, 207.5 kPa	0.01475
277.09 K, 207.5 kPa	0.01483
277.12 K, 155.8 kPa	0.01476
278.14 K, 155.8 kPa	0.01482
278.17 K, 207.5 kPa	0.01489
285.91 K, 253.2 kPa	0.01594
286.05 K, 144.6 kPa	0.01592
286.67 K, 253.2 kPa	0.016
286.89 K, 144.6 kPa	0.01605
287.68 K, 253.2 kPa	0.01614
287.99 K, 144.6 kPa	0.01606
295.96 K, 253.2 kPa	0.01725
296.02 K, 352.9 kPa	0.01726
296.03 K, 154.5 kPa	0.01715
296.69 K, 352.9 kPa	0.01736
296.76 K, 253.2 kPa	0.01733
296.8 K, 154.5 kPa	0.01728
297.39 K, 352.9 kPa	0.0174
297.64 K, 253.2 kPa	0.01739
297.76 K, 154.5 kPa	0.01734
305.64 K, 155.2 kPa	0.01827
305.64 K, 502.4 kPa	0.01848
305.8 K, 352.8 kPa	0.01842
306.69 K, 155.2 kPa	0.01839
306.69 K, 502.4 kPa	0.01861
306.8 K, 352.8 kPa	0.01854
307.53 K, 155.2 kPa	0.01852
307.53 K, 502.4 kPa	0.01872
307.82 K, 352.8 kPa	0.01861
315.68 K, 496.3 kPa	0.01958
315.77 K, 348.9 kPa	0.01952
316.05 K, 153.9 kPa	0.01955
316.35 K, 700.4 kPa	0.02006
316.55 K, 496.3 kPa	0.01971
316.56 K, 700.4 kPa	0.01992
316.75 K, 348.9 kPa	0.01967
317.06 K, 153.9 kPa	0.01957
317.2 K, 700.4 kPa	0.01999
317.63 K, 496.3 kPa	0.01983
317.81 K, 348.9 kPa	0.01977
318.26 K, 153.9 kPa	0.01971
325.16 K, 1120.2 kPa	0.02135
325.31 K, 883.7 kPa	0.02119
325.41 K, 701.6 kPa	0.02104
325.53 K, 500.8 kPa	0.02091
325.64 K, 348 kPa	0.0208
325.83 K, 151.5 kPa	0.02082
325.88 K, 1120.2 kPa	0.02135
326.11 K, 883.7 kPa	0.02133
326.2 K, 701.6 kPa	0.02113
326.36 K, 500.8 kPa	0.021
326.53 K, 348 kPa	0.02093
326.73 K, 1120.2 kPa	0.02156
326.79 K, 151.5 kPa	0.02087
326.99 K, 883.7 kPa	0.02145
327.16 K, 701.6 kPa	0.02125
327.38 K, 500.8 kPa	0.02116
327.53 K, 348 kPa	0.02098
327.88 K, 151.5 kPa	0.02094
335.18 K, 1196.9 kPa	0.02256
335.35 K, 898.7 kPa	0.02238
335.43 K, 705.2 kPa	0.02212
335.48 K, 353.4 kPa	0.02197
335.54 K, 505.2 kPa	0.02204
335.66 K, 152.2 kPa	0.02198
335.88 K, 1196.9 kPa	0.02272
336.11 K, 898.7 kPa	0.02244
336.23 K, 705.2 kPa	0.02226
336.32 K, 353.4 kPa	0.02209
336.37 K, 505.2 kPa	0.02217
336.45 K, 1196.9 kPa	0.0228
336.55 K, 152.2 kPa	0.02211
336.74 K, 898.7 kPa	0.0225
336.91 K, 705.2 kPa	0.02231
337.06 K, 505.2 kPa	0.02229
337.25 K, 353.4 kPa	0.02223
337.54 K, 152.2 kPa	0.02207
345.11 K, 1503.9 kPa	0.02418
345.23 K, 1200.4 kPa	0.0239
345.35 K, 897.3 kPa	0.02352
345.47 K, 700 kPa	0.02344
345.57 K, 502.5 kPa	0.02341
345.59 K, 1503.9 kPa	0.02427
345.67 K, 352.7 kPa	0.02338
345.74 K, 1200.4 kPa	0.02399
345.88 K, 154.3 kPa	0.02322
345.9 K, 897.3 kPa	0.02363
346.03 K, 700 kPa	0.0235
346.12 K, 1503.9 kPa	0.0244
346.15 K, 502.5 kPa	0.02351
346.26 K, 352.7 kPa	0.0234
346.29 K, 1200.4 kPa	0.02408
346.49 K, 897.3 kPa	0.02372
346.52 K, 154.3 kPa	0.02324
346.64 K, 700 kPa	0.02364
346.82 K, 502.5 kPa	0.02361
346.93 K, 352.7 kPa	0.0235
347.27 K, 154.3 kPa	0.02327
354.82 K, 2226 kPa	0.02637
355.11 K, 1777.8 kPa	0.02567
355.2 K, 1497.3 kPa	0.02536
355.22 K, 2226 kPa	0.02653
355.33 K, 1194.9 kPa	0.02506
355.47 K, 872.5 kPa	0.02483
355.55 K, 701.6 kPa	0.02472
355.58 K, 1777.8 kPa	0.02592
355.64 K, 504.3 kPa	0.02468
355.66 K, 2226 kPa	0.02632
355.69 K, 1497.3 kPa	0.02553
355.74 K, 356.1 kPa	0.02462
355.82 K, 1194.9 kPa	0.02508
355.89 K, 156.1 kPa	0.02441
355.97 K, 872.5 kPa	0.02489
356.09 K, 1777.8 kPa	0.02597
356.1 K, 701.6 kPa	0.02489
356.2 K, 504.3 kPa	0.02488
356.21 K, 1497.3 kPa	0.02554
356.31 K, 356.1 kPa	0.02481
356.38 K, 1194.9 kPa	0.02516
356.52 K, 156.1 kPa	0.02447
356.57 K, 872.5 kPa	0.02502
356.72 K, 701.6 kPa	0.0249
356.86 K, 504.3 kPa	0.02485
356.98 K, 356.1 kPa	0.02475
357.23 K, 156.1 kPa	0.02456
364.94 K, 2198.1 kPa	0.02782
365.09 K, 1801.9 kPa	0.02689
365.2 K, 1500.1 kPa	0.0265
365.3 K, 1202 kPa	0.02622
365.42 K, 906.2 kPa	0.02606
365.51 K, 697.2 kPa	0.02598
365.51 K, 2198.1 kPa	0.02789
365.59 K, 481.6 kPa	0.026
365.68 K, 346.3 kPa	0.02589
365.7 K, 1801.9 kPa	0.0271
365.81 K, 1500.1 kPa	0.02669
365.86 K, 156.4 kPa	0.02596
365.94 K, 1202 kPa	0.02635
365.99 K, 2198.1 kPa	0.02796
366.1 K, 906.2 kPa	0.02615
366.2 K, 697.2 kPa	0.02609
366.23 K, 1801.9 kPa	0.02723
366.31 K, 481.6 kPa	0.02599
366.35 K, 1500.1 kPa	0.02675
366.42 K, 346.3 kPa	0.02597
366.52 K, 1202 kPa	0.02642
366.66 K, 156.4 kPa	0.02591
366.7 K, 906.2 kPa	0.02622
366.82 K, 697.2 kPa	0.02608
366.96 K, 481.6 kPa	0.02612
367.09 K, 346.3 kPa	0.02604
367.38 K, 156.4 kPa	0.02597
374.95 K, 2704.4 kPa	0.03029
375.17 K, 2197.8 kPa	0.02893
375.29 K, 1766.8 kPa	0.02826
375.36 K, 1499.6 kPa	0.02784
375.46 K, 892.8 kPa	0.02733
375.49 K, 1198.6 kPa	0.02756
375.49 K, 2704.4 kPa	0.03041
375.54 K, 707.6 kPa	0.02738
375.63 K, 507.4 kPa	0.02734
375.72 K, 354 kPa	0.02727
375.76 K, 2197.8 kPa	0.0291
375.9 K, 152.4 kPa	0.02713
375.92 K, 1766.8 kPa	0.02831
375.95 K, 2704.4 kPa	0.03051
375.97 K, 1499.6 kPa	0.02793
376.14 K, 892.8 kPa	0.02756
376.17 K, 1198.6 kPa	0.0277
376.22 K, 707.6 kPa	0.02749
376.28 K, 2197.8 kPa	0.02917
376.35 K, 507.4 kPa	0.02737
376.45 K, 354 kPa	0.02739
376.46 K, 1766.8 kPa	0.02837
376.56 K, 1499.6 kPa	0.02791
376.68 K, 152.4 kPa	0.02726
376.72 K, 892.8 kPa	0.02758
376.75 K, 1198.6 kPa	0.02773
376.81 K, 707.6 kPa	0.02751
376.96 K, 507.4 kPa	0.0274
377.08 K, 354 kPa	0.02742
377.4 K, 152.4 kPa	0.0273
384.94 K, 3297.7 kPa	0.03329
385.16 K, 2700.7 kPa	0.03115
385.35 K, 2197 kPa	0.02995
385.44 K, 3297.7 kPa	0.03354
385.48 K, 1805.7 kPa	0.02946
385.56 K, 1500.6 kPa	0.02919
385.66 K, 1201.3 kPa	0.02897
385.74 K, 2700.7 kPa	0.03126
385.77 K, 899.9 kPa	0.02885
385.93 K, 503.9 kPa	0.02857
385.95 K, 703 kPa	0.0288
385.98 K, 2197 kPa	0.0301
386 K, 3297.7 kPa	0.03358
386.01 K, 355.6 kPa	0.02861
386.13 K, 1805.7 kPa	0.02959
386.2 K, 156.6 kPa	0.02852
386.22 K, 1500.6 kPa	0.02926
386.33 K, 1201.3 kPa	0.02917
386.38 K, 2700.7 kPa	0.03136
386.48 K, 899.9 kPa	0.02895
386.5 K, 2197 kPa	0.03017
386.6 K, 703 kPa	0.02886
386.65 K, 503.9 kPa	0.02873
386.65 K, 1805.7 kPa	0.02964
386.74 K, 1500.6 kPa	0.02936
386.79 K, 355.6 kPa	0.02867
386.93 K, 1201.3 kPa	0.02916
387.03 K, 156.6 kPa	0.02858
387.08 K, 899.9 kPa	0.02903
387.21 K, 703 kPa	0.02901
387.32 K, 503.9 kPa	0.02881
387.44 K, 355.6 kPa	0.02881
387.74 K, 156.6 kPa	0.02859

N#N [nitrogen]
Conditions	thermal conductivity [W/m/K]
235.41 K, 3405.4 kPa	0.02334
235.72 K, 3405.4 kPa	0.02333
255.55 K, 5432.8 kPa	0.026
255.7 K, 1281.1 kPa	0.02332
255.86 K, 5432.8 kPa	0.02596
256.26 K, 1281.1 kPa	0.02323
275.39 K, 5057.3 kPa	0.02674
275.41 K, 1027.7 kPa	0.02441
276.05 K, 5057.3 kPa	0.0269
276.11 K, 1027.7 kPa	0.02435
295.15 K, 1844.1 kPa	0.02606
295.25 K, 4380.8 kPa	0.02731
295.68 K, 1844.1 kPa	0.02599
295.92 K, 4380.8 kPa	0.02738
325.32 K, 716 kPa	0.02758
325.43 K, 2042.9 kPa	0.02842
326.2 K, 2042.9 kPa	0.02845
326.23 K, 4941.8 kPa	0.02961
326.39 K, 716 kPa	0.02763
